Source: EP0250755A2, “Fluorine derivatives of vitamin D3 and process for producing the same” (SUMITOMO PHARMACEUTICALS COMPANY, LIMITED, priority 1986, dated 1988)

Legend:
[1] = tested on: human premyeloblast leukemia cells (HL-60); assay: NBT reduction (differentiation of HL-60 cells into macrophages); type: cell-based; conditions: HL-60, 4 days, control 0.5
Protocol: Thereafter, the cells were smeared onto a slide glass, subjected to Giemsa staining, and the coloration of the cells was examined under a microscope. The number of cells containing intracellular blue-black formazan deposits was measured for 200 cells, and the results were expressed in terms of the percentage of NBT reduction-positive cells.

[2] = tested on: human premyeloblast leukemia cells (HL-60); assay: Proliferation-suppression rate of HL-60 cells (Coulter counter, 4 days cultivation); type: cell-based; conditions: 96 h, HL-60, 4 days; for inhibition at 0.1 ng/mL: Concn. 0.1 ng/mL; for inhibition at 1 ng/mL: Concn. 1 ng/mL; for inhibition at 10 ng/mL: Concn. 10 ng/mL
Protocol: An HL-60 cell fluid adjusted to a concentration of 5 x 10^4 cells/ml was incorporated with each of the agents to be tested and cultivated in a carbon dioxide incubator at 37°C for 4 days. After the cultivation, the number of cells was measured by means of a Coulter counter. The percentage of the number thus measured relative to the number of cells in an untreated group was calculated, from which the proliferation-suppression rate was obtained.

vitamin D-deficient rats [3] = assay: Intestinal calcium transport response (method of Martin and DeLuca) in vitamin D-deficient rats; type: in vivo; conditions: intrajugular, 24 hours after administration, Mean ± SD (N = 4 ~ 6)
vitamin D-deficient rats [4] = assay: Bone calcium mobilization response (serum calcium, OCPC method) in vitamin D-deficient rats; type: in vivo; conditions: intrajugular, 24 hours after administration, Mean ± SD (N = 4 ~ 6)
Protocol: Blood was collected after 24 hours, and the concentration of calcium in serum was determined by the OCPC (orthocresolphthalein complexon) method.

[5] = dose 650 pmol/100 g body wt., control 2.5 ± 0.30
[6] = dose 650 pmol/100 g body wt., control 4.8 ± 0.31
[7] = dose 50 pmol/100 g body wt., control 2.6 ± 0.27
[8] = dose 50 pmol/100 g body wt., control 4.8 ± 0.29

SMILES | NBT reduction rate ([1]; Concn. 0.1 µg/ml) [%] | NBT reduction rate ([1]; Concn. 1 µg/ml) [%] | NBT reduction rate ([1]; Concn. 10 µg/ml) [%] | inhibition at 0.1 ng/mL [2] [%] | inhibition at 1 ng/mL [2] [%] | inhibition at 10 ng/mL [2] [%] | Intestinal calcium transport (Ca [S/M]) (vitamin D-deficient rats [3]; [5]) | Serum calcium (vitamin D-deficient rats [4]; [6]) [mg/100 ml] | Intestinal calcium transport (Ca [S/M]) (vitamin D-deficient rats [3]; [7]) | Serum calcium (vitamin D-deficient rats [4]; [8]) [mg/100 ml]
C=C1/C(=C\C=C2/CCC[C@]3(C)[C@@H]([C@H](C)C[C@@H](O)CC(O)(C(F)(F)F)C(F)(F)F)CC[C@@H]23)C[C@@H](O)C[C@@H]1O [Compound 28a, 23(R)-26,26,26,27,27,27-hexa-fluoro-1α,23,25-trihydroxyvitamin D3] | 6.5 | 60.5 | 80.0 | 19.8 | 76.4 | 92.2 | 6.3 ± 1.88 Ca [S/M] | 7.2 ± 0.67 | – | –
C=C1/C(=C\C=C2/CCC[C@]3(C)[C@@H]([C@H](C)CCCC(C)(C)O)CC[C@@H]23)C[C@@H](O)C[C@@H]1O [1α,25-(OH)2D3, 1α,25-Dihydroxyvitamin D3, reference compound] | 1.0 | 16.5 | 56.5 | 6.2 | 36.1 | 72.4 | 3.6 ± 0.52 Ca [S/M] | 8.5 ± 0.59 | 3.4 ± 0.72 Ca [S/M] | 5.5 ± 0.30
C=C1/C(=C\C=C2/CCC[C@]3(C)[C@@H]([C@H](C)CCC(=O)C(O)(C(F)(F)F)C(F)(F)F)CC[C@@H]23)C[C@@H](O)C[C@@H]1O [Compound 10, la,25-dihydroxy-26,26,26,27,27,27-hexafluoro-24-oxovitamin D3] | 12.5 | 46.0 | 82.5 | 45.9 | 78.6 | 89.9 | – | – | 6.5 ± 1.92 Ca [S/M] | 6.5 ± 0.40
C=C1/C(=C\C=C2/CCC[C@]3(C)[C@@H]([C@H](C)CC[C@H](O)C(O)(C(F)(F)F)C(F)(F)F)CC[C@@H]23)C[C@@H](O)C[C@@H]1O [Compound 6a, 24(S)-26,26,26,27,27,27-hexa-fluoro-la,24,25-trihydroxyvitamin D3] | 8.0 | 55.0 | 86.0 | 30.7 | 74.9 | 83.7 | – | – | – | –
C=C1/C(=C\C=C2/CCC[C@]3(C)[C@@H]([C@H](C)CC[C@@H](O)C(O)(C(F)(F)F)C(F)(F)F)CC[C@@H]23)C[C@@H](O)C[C@@H]1O [Compound 6b, 24(R)-26,26,26,27,27,27-hexafluoro-1α,24,25-trihydroxyvitamin-D3] | 32.0 | 79.5 | 83.5 | 50.2 | 84.7 | 90.4 | – | – | 8.9 ± 2.81 Ca [S/M] | 6.3 ± 0.55
C=C1/C(=C\C=C2/CCC[C@]3(C)[C@@H]([C@H](C)C[C@H](O)CC(O)(C(F)(F)F)C(F)(F)F)CC[C@@H]23)C[C@@H](O)C[C@@H]1O [Compound 28b, 23(S)-26,26,26,27,27,27-hexa-fluoro-1α,23,25-trihydroxyvitamin D3] | 2.0 | 60.0 | 81.0 | 22.8 | 67.3 | 86.9 | 5.7 ± 1.92 Ca [S/M] | 5.6 ± 0.60 | – | –
